For eleven molecules, TGI and GI50 results are on record in PubChem BioAssay (NCI).

Among the test systems are OVCAR-4 ovarian; CAKI-1 renal; SF-268 CNS; SN12C renal; K-562 leukemia; LOX IMVI melanoma; MOLT-4 leukemia; SR leukemia; U251 CNS.
Holding throughout (assay): NCI anticancer screen, dose series, 48 h

“And” between values parts separate entries of the source, which are not always exact repeats. Equal entries are not always repeated.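 All cell lines were grown in 96-well plates and treated with compound for 48 hours. GI50: concentration for 50% inhibition of growth. TGI is the concentration that stops growth completely.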

As for `CC(C)(C)C(=O)O[C@@H]1COC2C(O)COC21` (stereo partly drawn), the TGI with OVCAR-4 ovarian, with CAKI-1 renal, in the test on SF-268 CNS, in the test with SN12C renal, with K-562 leukemia and with LOX IMVI melanoma was over 100 µM each time. The TGI in the test with MOLT-4 leukemia is 49 µM; with SR leukemia, over 100 µM; in the test on U251 CNS it was over 100 µM.
Take `CCC(C(=O)[O-])C(=O)[O-].CCC(C(=O)[O-])C(=O)[O-].N.N.NCCCCCCN.[Pt+4].[Pt+4]`: the GI50 was 5.85 µM with OVCAR-4 ovarian; 2.25 µM in the test on CAKI-1 renal; 11.2 µM in the test on SF-268 CNS; 8.66 µM in the test on SN12C renal; 1.79 µM in the test on K-562 leukemia; 10.1 µM in the test on LOX IMVI melanoma. The GI50 in the test with MOLT-4 leukemia is 1.18 µM; in the test on SR leukemia, 6.11 µM; in the test with U251 CNS it was 8.8 µM. Also, the TGI with OVCAR-4 ovarian amounted to 13 µM; in the test on CAKI-1 renal, 4.97 µM; in the test on SF-268 CNS, 24 µM; with SN12C renal, 17.1 µM; in the test on K-562 leukemia, 10.3 µM; with LOX IMVI melanoma, 20.6 µM. Moreover, the TGI in the test on MOLT-4 leukemia is 2.94 µM; in the test with SR leukemia, 35.4 µM; with U251 CNS, 16.5 µM.
Take `O=C(O)C1(Cc2cccc(Nc3nccs3)n2)CCC(Oc2cccc(Cl)c2F)CC1` (stereo not drawn): the GI50 is 25.8 µM in the test on OVCAR-4 ovarian; 12.4 µM with CAKI-1 renal; 25.1 µM with SF-268 CNS; 11.4 µM with SN12C renal; 0.468 µM in the test on K-562 leukemia; 7.62 µM in the test with LOX IMVI melanoma. In addition, the GI50 with MOLT-4 leukemia is 15.7 µM; in the test with SR leukemia it was 0.419 µM; in the test on U251 CNS, 24.4 µM. The TGI is over 100 µM with OVCAR-4 ovarian; 38.8 µM in the test on CAKI-1 renal; over 100 µM with SF-268 CNS; 46.6 µM in the test on SN12C renal; over 56.5 µM in the test with K-562 leukemia; 22.5 µM with LOX IMVI melanoma. Besides, the TGI is 63.8 µM in the test with MOLT-4 leukemia, 50.3 µM with SR leukemia and over 54.8 µM in the test with U251 CNS.
As to `O=C1/C(=C/c2ccccc2)CN(C(=O)OCc2ccccc2)C/C1=C\c1ccccc1`, the GI50 was 7.9 µM in the test with OVCAR-4 ovarian, 1.63 µM in the test on K-562 leukemia, 1.21 µM with LOX IMVI melanoma and 2.18 µM with MOLT-4 leukemia. The TGI in the test with OVCAR-4 ovarian was 27.4 µM; in the test with CAKI-1 renal, over 31.6 µM; in the test with SF-268 CNS, 30.7 µM; in the test with SN12C renal, 22.7 µM; in the test with K-562 leukemia, 15.4 µM; in the test on LOX IMVI melanoma, 2.52 µM and 8.88 µM. Besides, the TGI in the test on MOLT-4 leukemia is 7.49 µM and 19 µM; in the test on SR leukemia, 12.3 µM; with U251 CNS, 17.8 µM.
For `CC1=C(c2cc(C(=O)Nc3cccc(C(F)(F)F)c3)ncn2)Sc2ccccc2N1`, the TGI in the test on OVCAR-4 ovarian, with CAKI-1 renal, with SF-268 CNS, in the test on SN12C renal, with K-562 leukemia and in the test with MOLT-4 leukemia was over 100 µM throughout. Moreover, the TGI in the test with SR leukemia and in the test on U251 CNS was over 100 µM throughout.
Take `Cc1cc(C)c(S(=O)(=O)ONC(=O)OC(C)(C)C)c(C)c1`: the TGI in the test on OVCAR-4 ovarian, with CAKI-1 renal, with SF-268 CNS, in the test with SN12C renal, in the test on K-562 leukemia and in the test with LOX IMVI melanoma was over 100 µM in each case. In addition, the TGI with MOLT-4 leukemia and with U251 CNS was over 100 µM each time.
For the molecule `O=C(NO)C(=O)Nc1ccc(Cl)cc1[N+](=O)[O-]`, the TGI in the test with OVCAR-4 ovarian, in the test on CAKI-1 renal, in the test on SF-268 CNS, in the test on SN12C renal, with K-562 leukemia and in the test on LOX IMVI melanoma was over 100 µM in each case. For the same molecule, the TGI with MOLT-4 leukemia, in the test on SR leukemia and with U251 CNS was over 100 µM throughout.
As for `CC(=O)[O-].O=C([CH-]C(=O)c1ccccc1)c1ccccc1.O=C([CH-]C(=O)c1ccccc1)c1ccccc1.[Y+3]`, the GI50 was 5.73 µM with OVCAR-4 ovarian; 4.53 µM with CAKI-1 renal; 4.27 µM in the test with SF-268 CNS; 6.23 µM in the test on SN12C renal; 3.45 µM in the test on K-562 leukemia; 4.95 µM in the test on LOX IMVI melanoma. The GI50 with MOLT-4 leukemia is 2.91 µM; with U251 CNS, 3.91 µM. Moreover, the TGI in the test on OVCAR-4 ovarian was 77.3 µM; in the test with CAKI-1 renal, 19.4 µM; in the test with SF-268 CNS, 31.3 µM; in the test with SN12C renal, 38 µM; in the test with K-562 leukemia it was over 100 µM; in the test on LOX IMVI melanoma it was 23.4 µM. For the same molecule, the figures for the TGI in the test with MOLT-4 leukemia and in the test with U251 CNS were 32.3 µM and 31.5 µM, respectively.
Regarding `COC12CC(=O)C(C(C)=O)=C(O)C1(C)c1c(OC(C)=O)c(C)c(O)c(C(C)=O)c1O2` (stereo not drawn), the TGI in the test on OVCAR-4 ovarian was over 100 µM; with CAKI-1 renal it was 54.1 µM; in the test on SF-268 CNS it was over 100 µM; with SN12C renal, 64.7 µM; in the test with K-562 leukemia, over 100 µM; in the test on LOX IMVI melanoma it was over 100 µM. In addition, the TGI with MOLT-4 leukemia, in the test on SR leukemia and in the test with U251 CNS was over 100 µM in each case.
Regarding `N#CC1(C=O)c2ccccc2C=CN1C(=O)c1ccccc1` (stereo not drawn), the TGI in the test on OVCAR-4 ovarian is over 100 µM; with CAKI-1 renal, over 100 µM; with SF-268 CNS, over 100 µM; in the test with SN12C renal, over 100 µM; in the test with K-562 leukemia, 91.6 µM; with MOLT-4 leukemia, 44.9 µM. Further, the TGI is 66.5 µM in the test on SR leukemia and over 100 µM in the test on U251 CNS.
As to `O=C(NNC(=O)c1cc(/C=C/c2cccc([N+](=O)[O-])c2)[nH]c(=S)n1)Nc1ccc(Cl)cc1`, the TGI with SF-268 CNS was over 100 µM; with SN12C renal, over 100 µM; in the test with K-562 leukemia, over 100 µM; with LOX IMVI melanoma, 37.3 µM; with MOLT-4 leukemia, 72 µM; in the test on SR leukemia, 9.76 µM. The same molecule yielded a TGI in the test on U251 CNS of 30.2 µM.
